This is an account of results in US4346082A, “Method of employing therapeutic composition comprising ammonium or substituted ammonium compounds for treatment of alcoholism” (The Vinoxen Company, priority 1981, dated 1982).

Data set [1] concerns humans. Description: Toxicity in humans, repeated administration of capsules. The settings on record: up to 20 capsules per day (1 gram/capsule) for 10 days.
Data set [2] relates to mice. As to the kind of experiment: Acute, subacute and chronic toxicity in mice, gastric catheter.
A short description of data set [3]: pH of 5 weight percent aqueous salt solution. Format: physicochemical. The settings on record: 5 g salt per 100 g aqueous solution, 25° C. As for the experimental part: For each salt, 5.000 grams of reagent grade material was weighed and added to 95.00 grams of water. […] The instrument was allowed to equilibrate for three minutes between each sample, and the electrodes were rinsed with carbonate-free deionized water. Manual temperature control was set at 25° C.

Data set [4] has as its system rats. As to the kind of experiment: Acute, subacute and chronic toxicity in rats, gastric catheter.
The test system of data set [5] is effects of alcohol. As to the kind of experiment: Efficacy in altering the effects of alcohol administered to mice. It counts as in vivo. Particulars: for comparative effect on mice of ammonium thiosulfate and ammonium sulfate: series of tests in mice. The protocol: Tests of some of the compounds encompassed within the scope of this invention were carried out with mice to determine efficacy in altering the effects of alcohol administered to the test animals.

In data set [6] the test system is effect of alcohol on a human brain. The settings on record: publication DOT HS-801 208 (1974); cited from earlier work.
Data set [7] relates to humans. Particulars: in vivo.
The test system of data set [8] is effects of alcohol. Description: Efficacy in altering the effects of alcohol in humans. The settings on record: compared with ammonium sulfate.
Data set [9] has as its system manifestations of the effects of alcohol. The settings on record: 1 or 2 capsules of 1 gram after 1 or 2 alcoholic drinks; in some cases. From the text: Throughout the specification and claims reference to an alcoholic drink means reference to an aqueous mixture of ethanol containing about 15-25 grams of ethanol per drink.
For data set [10], the system named is ethanol-induced neurological deficit. Particulars: for Fraction Protected / Percent (protected): 0.6 ml/mouse. The protocol:
They were deprived of food, but not water, for a period of five hours preceding the test. […] Ten minutes later the animals were tested for neurological deficit or its absence in the usual manner as described in Example 1. A separate group of fasted by non-pretreated mice served as ethanol controls.

The test system is the same in data set [11]. The settings on record: for Fall from rod in 10 sec. (individual mouse): 0.6 ml of 10% solution oral, 30 min before 0.5 ml 30% ethanol oral; for No. Protected/No. Treated: 0.6 ml/mouse of 10% solution oral, ethanol 0.5 ml/mouse; for effectiveness as inhibitors of ethanol-induced neurological deficit: at the dose used (0.6 ml/mouse of 10% solution).
Protocol: (§1) Neurological deficit was recorded if the animal was unable to remain on the rod for at least 10 seconds.
Each composition was prepared freshly as a 10% aqueous solution from the crystalline preparation. A dose of 0.6 ml/mouse was administered orally to 10 mice for each compound. […] A group of 10 untreated mice were used as controls.
For data set [12], the system named is rats. Particulars: rat, in vivo.
Data set [13] concerns ethanol-induced neurological deficit.
Protocol: as §1
The subject of data set [14] is mice. The settings on record: mouse, in vivo.
Data set [15] concerns neurological deficit. The protocol:
Ten minutes later the animals were placed, individually, on a rotored, rotating at 6 rpm. […] Absence of neurological deficit was similarly recorded (+) if the animal had sufficient coordination and muscular power to remain on the rotating rod for 10 seconds or more.

Data set [16] deals with neurological deficit. The settings on record: i.p., fasted mice; 0.12-0.19 at 95% confidence limit. The protocol: Further, and in order to avoid physio-chemical problems that might, albeit remotely, arise if ethanol is administered orally, applicant also determined the intraperitoneal ED50 of ethanol in fasted mice.
Setting [17] is: ethanol 0.50 ml per mouse, ammonium thiosulfate pretreated.
The mark [18] stands for this setting: ethanol 0.63 ml per mouse, ammonium thiosulfate pretreated.
Where [19] appears, read: ethanol 0.75 ml per mouse, ammonium thiosulfate pretreated.
[20] abbreviates: ethanol 0.87 ml per mouse, ammonium thiosulfate pretreated.
Setting [21] is: ethanol 1.00 ml per mouse, ammonium thiosulfate pretreated.
Setting [22] is: ethanol 0.05 ml per mouse, non-pretreated.
[23] abbreviates: ethanol 0.10 ml per mouse, non-pretreated.
[24] abbreviates: ethanol 0.15 ml per mouse, non-pretreated.
[25] abbreviates: ethanol 0.20 ml per mouse, non-pretreated.
[26] abbreviates: ethanol 0.30 ml per mouse, non-pretreated.
Where [27] appears, read: ethanol 0.50 ml per mouse, non-pretreated.

Like-named read-outs stand apart in the source and are kept apart here.

Regarding `CC(=O)O` [Ammonium acetate, ammonium acetate], the “clinical or analytic noxious effects” value in the data set on humans [1] is listed as “no clinical or analytic noxious effects”. Further, the “acute, subacute and chronic toxicity” value with mice [2] and in the data set with rats [4] was “low toxicity” in each case. For the same compound, the “pH of 5 Weight Percent Solution” value in data set [3] was found to be 6.790. Further, the “efficacy in altering the effects of alcohol in mice” value with effects of alcohol [5] (mice) is recorded as “Good results”.
For the compound `Cl.N` [Ammonium chloride, ammonium chloride, reference compound], the “pH of 5 Weight Percent Solution” value in data set [3] came out at 4.761. Besides, the amethystic effect entry in [6] is listed as “does not appear to act as an amethystic agent”.
For `N.NS(=O)(=O)O` [Ammonium sulfamate, ammonium sulfamate], in data set [3], the “pH of 5 Weight Percent Solution” value turned out to be 5.335.
As to `N.N.O=S(O)(O)=S` [Ammonium thiosulfate, ammonium thiosulfate], the “clinical or analytic noxious effects” value in the data set with humans [7] is “no clinical or analytic noxious effects”. In addition, the “expected effect in altering the effects of alcohol ingestion in humans” value with effects of alcohol [8] was “substantially greater”. The “additional drinks consumed without typical manifestations of the effects of alcohol” value in data set [9] is “up to 8 additional drinks”. For the same compound, in data set [3], the “pH of 5 Weight Percent Solution” value is 5.966. Besides, the “percent of pure ammonium thiosulfate required to protect 50% of the mice” value in [10] (0.6 ml/mouse oral as basic dose) is reported as 3.6 (2.63-4.93%). The “Fraction Protected” value in [10] (1.25% ammonium thiosulfate) is reported as 0/10; in data set [10] (2.5% ammonium thiosulfate), 3/10; in [10] (5.0% ammonium thiosulfate), 7/10; in [10] (7.5% ammonium thiosulfate) it was 8/10; in [10] (10.0% ammonium thiosulfate), 8/10. For the same compound, the “Percent (protected)” value is recorded as 0% in data set [10] (1.25% ammonium thiosulfate); 30% in data set [10] (2.5% ammonium thiosulfate); 70% in [10] (5.0% ammonium thiosulfate); 80% in [10] (7.5% ammonium thiosulfate); 80% in data set [10] (10.0% ammonium thiosulfate). Besides, the “Fall from rod in 10 sec. (individual mouse)” value (“Fall from rod” below) is “+” in data set [10] (1.25% ammonium thiosulfate, 0.6 ml/mouse oral, 30% ethanol 0.5 ml/mouse); “- and +” in data set [11]; “- and +” in [13] (ethanol 0.5 ml, 0.6 ml of 10% ammonium thiosulfate solution oral, 30 min before); “- and +” in data set [13] (ethanol 0.63 ml, 0.6 ml of 10% ammonium thiosulfate solution oral, 30 min before); “+ and ° and -” in data set [13] (ethanol 0.75 ml, 0.6 ml of 10% ammonium thiosulfate solution oral, 30 min before); “+ and -” in [13] (ethanol 0.87 ml, 0.6 ml of 10% ammonium thiosulfate solution oral, 30 min before). Further, the “Fall from rod” value in [13] (ethanol 1.00 ml, ammonium thiosulfate solution dose printed as 0.0 ml) is reported as “+”. Also, the “No. Protected/No. Treated” value in data set [11] is recorded as 8/10. Moreover, the “effectiveness as inhibitors of ethanol-induced neurological deficit” value in [11] is listed as “highly effective”. The “relative potency of ammonium thiosulfate and ammonium sulfate” value in data set [11] (single test) is reported as “essentially equipotent”. The “acute, subacute and chronic toxicity” value with rats [12] and in the data set with mice [14] was “low toxicity” each time. For the same compound, in the data set with effects of alcohol [5], the “comparative effect on mice of ammonium thiosulfate and ammonium sulfate” value is on record as “approximately equally effective”. The “ED50 of 30% ethanol in pretreated mice” value in [13] (30% (v/v) ethanol oral, ammonium thiosulfate pretreated) is recorded as 0.76 ml/mouse. Further, in [13] (30% (v/v) ethanol, 95% limits 0.65-0.90 ml), the “oral ED50 of ethanol in ammonium thiosulfate pretreated animals” value is 0.76 mL. The “increase in ethanol required to induce neurological deficit following pretreatment” value in data set [13] (ammonium thiosulfate pretreated vs non-pretreated mice) is reported as “nearly five times”. For the same compound, the “Fraction Falling From Rod in 10 sec.” value is reported as 1/10 in data set [13] (setting [17]); 2/10 in data set [13] (setting [18]); 4/10 in [13] (setting [19]); 7/10 in data set [13] (setting [20]); 10/10 in data set [13] (setting [21]). In addition, the “Percent Falling” value in data set [13] (setting [17]) amounted to 10%; in data set [13] (setting [18]), 20%; in data set [13] (setting [19]), 40%; in [13] (setting [20]), 70%; in data set [13] (setting [21]), 100%.
In the case of `CCO` [Ethanol, ethanol], in the data set with neurological deficit [15] (30% (v/v) ethanol oral, non-pretreated, 95% limit 0.13-0.22), the “ED50 (95% Limit)” value turned out to be 0.17 mL. For the same compound, the “oral ED50 of 30% ethanol for neurological deficit, non-pretreated mice” value with neurological deficit [15] (30% (v/v) ethanol, 95% fiducial limits 0.13 to 0.22 ml/mouse) is 0.17 ml/mouse. The “Fall from rod” value in the data set with neurological deficit [15] (ethanol 0.05 ml oral, non-pretreated) is listed as “-”; in the data set on neurological deficit [15] (ethanol 0.5 ml oral, non-pretreated) it was “+”. Besides, the “Fraction Falling From Rod in 10 sec.” value with neurological deficit [15] (setting [22]) was 0/5; with neurological deficit [15] (setting [23]), 2/10; in the data set with neurological deficit [15] (setting [24]), 4/10; in the data set with neurological deficit [15] (setting [25]), 7/10; in the data set with neurological deficit [15] (setting [26]), 4/5; with neurological deficit [15] (setting [27]), 10/10. In addition, the “Percent Falling” value is given as 0% with neurological deficit [15] (setting [22]); 20% in the data set with neurological deficit [15] (setting [23]); 40% in the data set on neurological deficit [15] (setting [24]); 70% in the data set with neurological deficit [15] (setting [25]); 80% with neurological deficit [15] (setting [26]); 100% in the data set with neurological deficit [15] (setting [27]). For the same compound, in the data set with neurological deficit [16], the “intraperitoneal ED50 of 30% ethanol” value was 0.15 ml/mouse.
For the compound `N[C@@H](Cc1ccc(O)c(O)c1)C(=O)O` [L-dopa], the amethystic effect entry in [6] is recorded as “most effective amethystic agent”.
For ammonium sulfate, in the data set on humans [1], the “clinical or analytic noxious effects” value is on record as “no clinical or analytic noxious effects”. For the same compound, the “pH of 5 Weight Percent Solution” value in [3] was found to be 5.263. In addition, in [11], the “Fall from rod” value is “- and +”; the “No. Protected/No. Treated” value was 7/10; the “effectiveness as inhibitors of ethanol-induced neurological deficit” value is listed as “highly effective”. In addition, the “comparative effect on mice of ammonium thiosulfate and ammonium sulfate” value in the data set on effects of alcohol [5] is reported as “approximately equally effective”.
